Assay results taken from ChEMBL document CHEMBL4028831, “Improvement of hERG-ROMK index of spirocyclic ROMK inhibitors through scaffold optimization and incorporation of novel pharmacophores” (Bioorg Med Chem Lett, 2017).
Blank lines part the entries; values can stand above or below the compound they belong to. Active and inactive are the calls of the source. The rule behind the calls is not given here.

Experiments:
[1] = target: Voltage-gated inwardly rectifying potassium channel KCNH2 (Homo sapiens, UniProt Q12809); experiment: Displacement of [35S]MK499 from human ERG expressed in HEK293 cells
[2] = species: Homo sapiens; experiment: Selectivity ratio of IC50 for human ERG expressed in HEK293 cells to IC50 for human ROMK expressed in HEK293 cells; format: cell-based
[3] = target: T1, ATP-sensitive inward rectifier potassium channel 1 (Homo sapiens, UniProt P48048); experiment: Inhibition of human ROMK channel expressed in HEK293 cells after 30 mins by FLIPR based thallium flux assay; format: cell-based
T1 sequence (P48048 whole entry): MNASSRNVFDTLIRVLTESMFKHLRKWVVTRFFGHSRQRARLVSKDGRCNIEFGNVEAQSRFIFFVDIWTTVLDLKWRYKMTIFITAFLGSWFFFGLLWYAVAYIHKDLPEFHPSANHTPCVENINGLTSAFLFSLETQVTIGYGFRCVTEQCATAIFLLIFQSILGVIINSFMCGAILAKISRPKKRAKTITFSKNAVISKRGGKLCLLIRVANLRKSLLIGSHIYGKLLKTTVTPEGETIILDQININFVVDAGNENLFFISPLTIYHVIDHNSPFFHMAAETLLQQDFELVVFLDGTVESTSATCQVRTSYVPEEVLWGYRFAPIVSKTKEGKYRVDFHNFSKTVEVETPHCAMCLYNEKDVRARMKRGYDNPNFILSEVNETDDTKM

[4] = tested on: Rattus norvegicus; experiment: Antihypertensive activity in rat spontaneous hypertensive model assessed as change in systolic blood pressure at 3 mg/kg, po qd measured after 3 days; format: functional
[5] = Clearance in Wistar Han rat at 0.5 mg/kg, iv or 1 mg/kg, po; format: ADME, organism-based; settings: in vivo
[6] = Volume of distribution at steady state in Wistar Han rat at 0.5 mg/kg, iv or 1 mg/kg, po; format: ADME, organism-based; settings: in vivo, read-out: Vdss
[7] = tested on: Rattus norvegicus; experiment: Dose normalized AUC in Wistar Han rat at 1 mg/kg, po; format: ADME, organism-based; settings: in vivo
[8] = Half life in Wistar Han rat at 0.5 mg/kg, iv or 1 mg/kg, po; format: ADME, organism-based; settings: in vivo
[9] = Oral bioavailability in Wistar Han rat at 1 mg/kg; format: ADME, organism-based; settings: in vivo
[10] = tested on: Rattus norvegicus; experiment: Antihypertensive activity in rat spontaneous hypertensive model assessed as induction of kaliuresis at 3 mg/kg, po qd measured after 3 days; format: functional, organism-based
[11] = tested on: Rattus norvegicus; experiment: Antihypertensive activity in rat spontaneous hypertensive model assessed as induction of natriuresis at 3 mg/kg, po qd measured after 3 days; format: functional, organism-based
[12] = tested on: Rattus norvegicus; experiment: Antihypertensive activity in rat spontaneous hypertensive model assessed as induction of diuresis at 3 mg/kg, po qd measured after 3 days; format: functional, organism-based
[13] = target: T1, ATP-sensitive inward rectifier potassium channel 1; experiment: Inhibition of human ROMK expressed in CHO cells at -70 mV holding potential after 6 mins by whole cell patch clamp Qpatch method; format: cell-based
[14] = Clearance in Beagle dog at 1 mg/kg, iv; format: ADME, organism-based, Canis lupus familiaris; settings: in vivo
[15] = Volume of distribution at steady state in Beagle dog at 1 mg/kg, iv; format: ADME, organism-based, Canis lupus familiaris; settings: in vivo, read-out: Vdss
[16] = Half life in Beagle dog at 1 mg/kg, iv; format: ADME, organism-based, Canis lupus familiaris; settings: in vivo
[17] = tested on: Rattus norvegicus; experiment: Antihypertensive activity in rat spontaneous hypertensive model assessed as change in systolic blood pressure at 25 mg/kg, po qd measured after 3 days; format: functional
[18] = Clearance in rat at 0.5 mg/kg, iv; settings: in vivo

Voltage-gated inwardly rectifying potassium channel KCNH2, sequence (Q12809 whole entry): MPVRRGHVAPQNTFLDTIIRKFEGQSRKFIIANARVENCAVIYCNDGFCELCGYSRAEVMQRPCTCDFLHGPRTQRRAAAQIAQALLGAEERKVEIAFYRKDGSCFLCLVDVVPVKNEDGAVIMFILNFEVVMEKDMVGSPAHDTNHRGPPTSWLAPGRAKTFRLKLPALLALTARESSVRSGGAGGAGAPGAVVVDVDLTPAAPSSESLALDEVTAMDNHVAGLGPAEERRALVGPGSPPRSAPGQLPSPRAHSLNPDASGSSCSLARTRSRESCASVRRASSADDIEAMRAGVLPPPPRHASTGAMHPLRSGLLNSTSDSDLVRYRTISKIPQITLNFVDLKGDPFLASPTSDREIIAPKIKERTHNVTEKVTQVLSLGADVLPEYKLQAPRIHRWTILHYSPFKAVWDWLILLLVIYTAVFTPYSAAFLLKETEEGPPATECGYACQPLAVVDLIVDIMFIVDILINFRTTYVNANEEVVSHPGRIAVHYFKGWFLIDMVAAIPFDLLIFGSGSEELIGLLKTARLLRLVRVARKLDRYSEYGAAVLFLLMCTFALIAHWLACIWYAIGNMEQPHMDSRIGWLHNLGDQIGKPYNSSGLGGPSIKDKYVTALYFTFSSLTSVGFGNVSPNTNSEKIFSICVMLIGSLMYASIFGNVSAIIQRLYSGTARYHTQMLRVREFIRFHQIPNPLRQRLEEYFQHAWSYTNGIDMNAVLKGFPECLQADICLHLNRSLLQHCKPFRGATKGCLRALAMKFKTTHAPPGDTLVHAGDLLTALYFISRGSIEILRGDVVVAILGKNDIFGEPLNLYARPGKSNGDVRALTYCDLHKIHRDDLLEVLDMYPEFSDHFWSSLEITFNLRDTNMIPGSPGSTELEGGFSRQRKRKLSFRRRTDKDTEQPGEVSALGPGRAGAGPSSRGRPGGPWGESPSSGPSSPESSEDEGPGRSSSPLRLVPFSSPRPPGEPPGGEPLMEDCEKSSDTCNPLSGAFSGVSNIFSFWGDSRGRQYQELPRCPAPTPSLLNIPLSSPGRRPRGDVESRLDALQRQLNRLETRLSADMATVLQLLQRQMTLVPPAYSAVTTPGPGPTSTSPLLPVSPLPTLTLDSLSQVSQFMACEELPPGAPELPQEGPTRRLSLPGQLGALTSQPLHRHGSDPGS

Compound: Cc1c([C@@H](O)CN2CCC3(CC2)CCN(c2cc(-c4ccccc4)no2)C3=O)ccc2c1COC2=O
IC50 [1]: 54 nM
Ratio IC50 [2]: 0.11

IC50 [3]: > 2000 nM
Compound: Cc1c([C@@H](O)CN2CCC3(CC2)CN(c2ccc(=O)n(C)n2)C3)ccc2c1COC2=O

IC50 [3]: 180 nM
Compound: Cc1c([C@@H](O)CN2CCC3(CC2)CCN(c2cnn(C)c(=O)c2)C3=O)ccc2c1COC2=O

IC50 [3]: 190 nM
clearance [5]: 30.3 mL/min/kg
Vd [6]: 4.4 L/kg
AUC/dose [7]: 1.6 µM·kg·h/mg
half-life [8]: 2.6 h
bioavailability [9]: 120%
Compound: Cc1nccc(N2CCC3(CCN(C[C@H](O)c4ccc5c(c4C)COC5=O)CC3)C2=O)n1
Activity [4]: -11 mmHg
Activity [10]: inactive
Activity [11]: Active
Activity [12]: Active

IC50 [3]: 41 nM
Compound: Cc1c([C@@H](O)CN2CCC3(CC2)CCN(c2ccc(=O)n(C4CCCC4)n2)C3=O)ccc2c1COC2=O
IC50 [1]: 13500 nM
Ratio IC50 [2]: 329

Compound: Cc1c([C@@H](O)[C@H](C)N2CCC3(CCN(c4ccc(=O)n(C)n4)C3=O)CC2)ccc2c1COC2=O
IC50 [1]: > 60000 nM

IC50 [3]: 27 nM
Compound: Cc1c([C@@H](O)CN2CCC3(CC2)CCN(c2ccns2)C3)ccc2c1COC2=O

clearance [5]: 41 mL/min/kg
Vd [6]: 4.2 L/kg
AUC/dose [7]: 1 µM·kg·h/mg
half-life [8]: 1.9 h
bioavailability [9]: 106%
IC50 [13]: 8 nM
Compound: Cc1nsc(N2CCC3(CCN(C[C@H](O)c4ccc5c(c4C)COC5=O)CC3)C2=O)n1
Activity [4]: -10 mmHg
Activity [10]: inactive
Activity [11]: Active
Activity [12]: Active

IC50 [3]: 570 nM
Compound: Cn1nc(N2CCC3(CCN(C[C@H](O)c4ccc(-n5cnnn5)nn4)CC3)C2=O)ccc1=O
IC50 [1]: 3100 nM
Ratio IC50 [2]: 5

IC50 [3]: 7600 nM
Compound: Cc1c([C@@H](O)CN2CCC3(CC2)CCN(c2ccn(C)c(=O)c2)C3=O)ccc2c1COC2=O

IC50 [3]: 18 nM
clearance [5]: 23 mL/min/kg
Vd [6]: 3.2 L/kg
AUC/dose [7]: 0.73 µM·kg·h/mg
half-life [8]: 2.4 h
bioavailability [9]: 45%
IC50 [13]: 12 nM
Compound: Cc1cc(N2CCC3(CCN(C[C@H](O)c4ccc5c(c4C)COC5=O)CC3)C2=O)sn1

Compound: Cc1c([C@@H](O)CN2CCC3(CC2)CCN(c2cn(C)c(=O)cn2)C3=O)ccc2c1COC2=O
IC50 [1]: > 60000 nM

clearance [5]: 128 mL/min/kg
Vd [6]: 21.5 L/kg
AUC/dose [7]: 0.11 µM·kg·h/mg
half-life [8]: 2 h
bioavailability [9]: 37%
Compound: Cc1c([C@@H](O)CN2CCC3(CC2)CCN(c2ccncc2)C3=O)ccc2c1COC2=O

IC50 [3]: 5100 nM
Compound: Cc1c([C@@H](O)CN2CCC3(CC2)CN(c2ccns2)C(=O)O3)ccc2c1COC2=O

IC50 [3]: 1050 nM
Compound: Cc1cc(=O)n(C)nc1N1CCC2(CCN(C[C@H](O)c3ccc4c(c3C)COC4=O)CC2)C1=O

Compound: Cc1nsc(N2CCC3(CCN(C[C@H](O)c4ccc5c(c4C)COC5=O)CC3)C2)n1
IC50 [1]: 4200 nM
Ratio IC50 [2]: 17

Compound: CCn1nc(N2CCC3(CCN(C[C@H](O)c4ccc5c(c4C)COC5=O)CC3)C2=O)ccc1=O
IC50 [1]: 7600 nM
Ratio IC50 [2]: 99

Compound: Cc1c([C@@H](O)CN2CCC3(CC2)CCN(c2ccns2)C3=O)ccc2c1COC2=O
Activity [4]: -6 mmHg
Activity [10]: inactive
Activity [11]: Active
Activity [12]: Active

clearance [5]: 9.6 mL/min/kg
Vd [6]: 3 L/kg
AUC/dose [7]: 1.8 µM·kg·h/mg
half-life [8]: 4.7 h
bioavailability [9]: 47%
clearance [14]: 24.4 mL/min/kg
Vd [15]: 1.7 L/kg
half-life [16]: 1.3 h
Compound: COc1nsc(N2CCC3(CCN(C[C@H](O)c4ccc5c(c4C)COC5=O)CC3)C2=O)n1
Activity [4]: -23 mmHg
Activity [10]: inactive
Activity [11]: Active
Activity [12]: Active

IC50 [3]: 14 nM
clearance [5]: 7.8 mL/min/kg
Vd [6]: 1.8 L/kg
AUC/dose [7]: 3.8 µM·kg·h/mg
half-life [8]: 4.1 h
bioavailability [9]: 80%
IC50 [13]: 5 nM
clearance [14]: 9.7 mL/min/kg
Vd [15]: 0.7 L/kg
half-life [16]: 1 h
Compound: COc1nccc(N2CCC3(CCN(C[C@H](O)c4ccc5c(c4C)COC5=O)CC3)C2=O)n1

clearance [5]: 20.8 mL/min/kg
Vd [6]: 5 L/kg
AUC/dose [7]: 1.2 µM·kg·h/mg
half-life [8]: 4.1 h
bioavailability [9]: 66%
Compound: COc1cc(N2CCC3(CCN(C[C@H](O)c4ccc5c(c4C)COC5=O)CC3)C2=O)ccn1

Compound: Cc1nc(-n2cnnn2)ccc1[C@@H](O)CN1CCC2(CC1)CCN(c1ccc(=O)n(C)n1)C2=O
IC50 [1]: 17200 nM
Ratio IC50 [2]: 66

Compound: NS(=O)(=O)c1cc2c(cc1Cl)NCNS2(=O)=O [HYDROCHLOROTHIAZIDE]
Activity [17]: -7 mmHg

clearance [18]: 24.2 mL/min/kg
Compound: Cc1c([C@@H](O)CN2CCC3(CC2)CCN(c2ccc(S(C)(=O)=O)cn2)C3)ccc2c1COC2=O

IC50 [3]: 130 nM
Compound: Cc1c([C@@H](O)CN2CCC3(CC2)CCN(c2ccc(=O)n(C(F)F)n2)C3=O)ccc2c1COC2=O
IC50 [1]: 19100 nM
Ratio IC50 [2]: 147
